Laboratory results: patent publication US11684660B2, “Human PD1 peptide vaccines and uses thereof” (OHIO STATE INNOVATION FOUNDATION, priority 2017, dated 2023)
No end group written: not given here.

Columns and labels:
CD4+CD25+FoxP3+ Tregs = assay: Immune-profiling of T cells in spleen and tumor by flow cytometry; type: in vivo, Balb/c mice
Method: CD4 and CD8 cells were determined by flow cytometry (gated on CD45+CD3+ cells). Foxp3+CD25+CD4 T regulatory cells were determined by intracellular staining. All CD4 and CD8 T cells were gated on CD45+CD3+ cells. Tregs were gated on CD45+CD3+CD4+ cells. Group A=control peptide, Group B=32-50; Group C=45-64; Group D=73-90; Group E=92-110; Group F=α-mouse PD-1 (positive control).
The tumor and tumor draining lymph nodes were collected for subsequent FACS analysis to study the immune response in mice. Cells suspensions were prepared from tissues either by mechanistic dissociation or by enzymatic digestion. The stained cells were analyzed with a LSR II flow cytometer (BD Biosciences) equipped with 3 excitation lasers at wavelengths 405, 488 and 633 nm. CD8+ T cells and CD4+CD25+ T cells from tumor leucocytes were purified either on a MACS column or FACSAria.
Flow cytometric analysis was performed to evaluate the expression of surface markers (CD45, CD3, CD4, CD8 and CD25) and transcription factor FoxP3 in splenocytes and tumor infiltrating T cells. Briefly, spleens were removed from mice and pressed through cell strainers, followed by a short incubation with red blood cells lysis buffer to lyse the red blood cells. Cells were then collected, washed, and resuspended in staining buffer (1% BSA in PBS). Similarly, tumors were removed from mice and pressed through cell strainers, followed by one wash with 37% percoll. The tumor cells were then washed with PBS and resuspended in staining buffer. The splenocytes and tumor cells were incubated with mAbs to the cell-surface markers for 30 min at 4° C. After washing twice with staining buffer, cells were fixed and permeabilized using Cytofix/Cytoperm solution for 60 min at 4° C. Cells were stained for FoxP3 for 30 min at 4° C. 80,000-100,000 live cell events were acquired on a FACSCanto (BD) and analyzed using FlowJo software (Tree Star, Inc.). To differentiate infiltrating cells from tumor cells, the tumor cells were first gated on CD45+ cells. Then the CD3+CD4+ and CD3+CD8+ cells were analyzed. Tregs were represented by CD4+CD25+FoxP3+ cells. […] Group E had the lowest Treg.

[1] = test system: tumor infiltrating lymphocytes; assay: Analysis of tumor infiltrating lymphocytes from peptide-vaccinated mice; type: in vivo, Balb/c mice
Method: CD4 (20A) and CD8 (20B) T cells were determined by flow cytometry (gated on CD45+ cells). Foxp3+CD25+CD4 Tregs ([…]) were determined by intracellular staining (gated on CD45+CD4+ cells). […] Group means were calculated and compared with Anova
FIGS. 21A and 21B show Analysis of tumor infiltrating lymphocytes from peptide-vaccinated mice. […] Tumor infiltrating cells were isolated from combined tumor tissue from […] (group A to F) of treated mice in first in vivo experiment. Tumor infiltrating cells were isolated from each mouse in group 5 and 6 from second in vivo experiment. CD4 and CD8 cells were determined by flow cytometry (gated on CD45+ infiltrating cells). FoxP3 expression on CD25+CD4+ T cells were determined by intracellular staining (gated on CD45+CD4+ cells). […] CD4 and CD8 cells were determined by flow cytometry (gated on CD45+ infiltrating cells). FoxP3 expression on CD25+CD4+ T cells were determined by intracellular staining (gated on CD45+CD4+ cells). Group means were calculated and compared with Anova. Error bars denote s.e.m.
On the other hand, high numbers of T cells at the tumor site, especially CD8 T cells, is a key denominator for overall survival (OS) in cancer patients. […] Therefore, it was determined CD8/Treg ratio in TIC in tumor-bearing mice vaccinated with combination peptides or control peptide (described above). […] The cells were then incubated with mAbs to the cell-surface markers (CD45, CD4, CD8, CD25 Then the cells were fixed and permeabilized using Cytofix/Cytoperm solution (ebioscience) for 60 min at 4° C., followed by staining for FoxP3 for 30 min at 4° C. 80,000-100,000 live cell events were acquired on a FACSCantoII (BD) and analyzed using FlowJo software (Tree Star, Inc.). To differentiate TILs from tumor cells, the cells were first gated on CD45^+ cells. Then the CD4^+ (FIG. 20A) and CD8^+ (FIG. 20B) cells were analyzed. Tregs were represented by CD4^+CD25^+FoxP3^+ cells (FIG. 20C). GraphPad software (GraphPad Prism Software, Inc., San Diego, Calif., USA) was utilized for statistical analysis. Group means were calculated and compared with Anova. […]

Substance: KLLSLIKGVIVHRLEGVE-GPSL-GAISLAPKAQIKESLRAEL-CONH2 (KLLSLIKGVIVHRLEGVEGPSLGAISLAPKAQIKESLRAEL-NH2) [MVF-PD-1 (92-110)]
- Treg population in spleen compared to Group A (negative control) (CD4+CD25+FoxP3+ Tregs; splenocytes, FIG. 10A): increased Treg population
- Tregs in tumor (CD4+CD25+FoxP3+ Tregs; tumor infiltrating cells, FIG. 10B): lowest Treg
- CD4 T cells or Treg cells in TILs, differences among groups ([1]; Anova): no significant differences
- CD8+ T cells in TILs compared to control peptide-vaccinated group ([1]; gated on CD45+ cells, Anova): significantly higher
- CD8/Treg ratio in TILs compared to control peptide-vaccinated group ([1]; mouse, in vivo): increased
